“Also recorded” adds a separate entry of the source.
Legend:
[1] = tested on: dopaminergic neurons within the substantia nigra; test: MPTP model of Parkinson's disease, TH+ neurons in SNc; assay type: in vivo, mice; conditions: IP, BID; for rescue of TH+ neurons: 10 mg/kg/d; for dose showing significant neuroprotective activity: 21 d after MPTP
Excerpt: The mouse model of neurogenesis involves protecting newborn hippocampal neurons from premature apoptotic cell death. We also sought to determine if P7C3-S243 could protect mature neurons from cell death. […] In the brain, MPTP is oxidized to 1-methyl-4-phenylpyridinium cation (MPP^+), which is selectively transported into dopaminergic neurons within the SNc.^xh Within these cells, MPP^+ acts as a mitochondrial poison, generating a pathology that resembles that of Parkinsonian patients.^xvii Under our assay conditions, treatment with drug was initiated a full 24 hours after the final dose of MPTP. This dosing regime ensures that any effect of the P7C3 class of compounds can be attributed to neuroprotective activity rather than to simply blocking the uptake or metabolism of MPTP.^xviii Mice were administered drug twice daily for 21 days, after which time they were sacrificed by transcardial perfusion. Fixed brains were sectioned through the SNc at […] intervals. Every fourth section was stained with antibodies specific to tyrosine hydroxylase (TH). The TH enzyme catalyzes the oxidation of L-tyrosine to L-DOPA, which is the first step in the biosynthesis of dopamine. Accordingly, the number of TH+ cells provides a quantification of the neuroprotective efficacy of P7C3 derivatives following MPTP exposure. Importantly, all microscopic analyses were performed blinded to treatment group.
To test efficacy of P7C3-S243 in the MPTP model of Parkinson's disease, mice were administered MPTP (30 mg/k/d) for 5 days. On the 6th day, treatment with drug was initiated at the indicated dose (IP, BID, 21 d). In FIG. 3 upper panel, bars indicate number of tyrosine hydroxylase positive cells detected by immunohistochemical staining of the substantia nigra; error bars indicate SEM; asterisks indicate p<0.01 (*), p<0.001 (**) or p<0.0001 (***) relative to the Veh+MPTP group; number of mice in each group are shown within the bars. In FIG. 3 lower panel, representative immunohistochemical pictures of TH staining in the SNc are shown for 5 mg/kg/d treatment groups; bar=[…]. […] Moreover, the enantiomeric specificity observed in the MPTP model of Parkinson's disease mirrored that observed in the mouse model of neurogenesis. […] In this side-by-side experiment, P7C3-S243 appears at least as effective as P7C3-A20, a compound that has proven efficacy in several animal models of neurodegenerative disease.
MPTP Assay. As previously reported,^5 adult male C57BI/6 mice were individually housed for one week and then injected daily for 5 days with 30 mg/kg/day (i.p.) free base MPTP (Sigma). On day 6, 24 hours after receiving the fifth and final dose of MPTP, daily treatment with compound was initiated. Mice received twice daily doses of each compound (or vehicle) for the following 21 days, after which mice were sacrificed by transcardial perfusion with 4% paraformaldehyde. Brains were dissected, fixed overnight in 4% paraformaldehyde, and cryprotected in sucrose for freezing by standard procedures. […] Images were analyzed with a Nikon Eclipse 90i motorized research microscope with Plan Apo lenses coupled with Metamorph Image Acquisition software (Nikon). TH+ neurons were counted with Image J software (NIH) in every section by 2 blinded investigators and results were averaged and multiplied by the sectioning interval to determine the total number of TH+ neurons per SNc.

blast-injured mice = test: Barnes maze after blast-mediated TBI; assay type: in vivo; conditions: for time in escape quadrant, probe test: treatment immediately after blast-injury, 10 mg/kg/d IP, FIG. 21A
Excerpt: Barnes maze: The Barnes maze evaluates cognition based on time spent in the escape area. There are 20 holes around the periphery of the round tabletop, one of which contains an escape chamber (shown in red), into which the animal is motivated to seek shelter after being placed on the open tabletop. The escape area is defined as 5 cm around the hole, and time spent in the escape area during the probe test is used to measure hippocampal-dependent memory, which is dependent on visual cue around the table.
To test the neuroprotective efficacy of P7C3-A20 and P7C3-S243, we employed a model of blast-induced TBI in which the blast wave is propagated following rupture of a mylar membrane (Mohan et al., 2013). Briefly, anesthetized mice are placed in an enclosed blast chamber constructed from an air tank partitioned into two sides. A sealed mylar membrane covers a small port between the two halves of the tank. When the pressure is increased in the side without the mouse, the membrane ruptures at ≈22 kilopascal (kPa), generating a blast wave that travels through the mouse's head. The head of the mouse is untethered and located in a padded holder, while the body is shielded from the blast by a metal tube. In all cases, the left side of the head faces the blast wave. As previously reported (Mohan et al., 2013), the intensity of the blast wave in our system is 149.8±2.09 kPa, and the duration of the total pressure (Blast wave+wind gust) is ≈10-15 milliseconds.
The Barnes maze consists of a circular table with holes equally spaced around the perimeter. One of these holes contains an escape cup, such that the mouse can enter the hole and hide in the cup to avoid exposure on the table. Testing in the Barnes maze was initiated 7 days after blast-injury. To begin, mice underwent 4 days of training, during which time they were allowed to find and enter the escape hole, and rest in the protective cup. By the 4th day of training, mice typically learn how to rapidly locate the escape hole, based on visual cues permanently positioned around the table throughout training. After 4 days of training, the cup is removed and the ability of the mouse to remember where the cup was previously located is assessed in the ‘probe test.’ Memory is reflected by measuring the amount of time the mouse spends in the area around where the cup was previously located.
Blast-Mediated Traumatic Brain Injury. Mice were anesthetized with ketamine/xylazine ([…] respectively) and placed in an enclosed blast chamber (50 cm long and 33 cm wide) constructed from an air tank partitioned into two sides. One side was pressurized with a 13 cm opening between the partitions, covered with a Mylar membrane. The unpressurized partition contained a restraint 10 cm from the Mylar membrane into which the mouse was placed. The head was freely moving while a metal tube shielded the body. Compressed air was forced in to the pressurized partition until the Mylar membrane bursts at 22 kPa. The blast wave impacts the test animal inside a foam-lined restraint to reduce blunt impact trauma of the head against the metal tube. The left side of the head was closest the origin of the blast wave. Sham-injured animals were anesthetized in the same way and not subjected to the blast.
Barnes Maze. The Barnes maze test assesses spatial learning and memory. It was conducted on a gray circular surface 91 cm in diameter with 20 holes 5 cm in diameter around the perimeter raised to a height of 90 cm (Stoelting Co.). The surface was brightly lit and open in order to motivate the test animal to learn the location of a dark escape chamber recessed under one of the 20 holes. The maze was placed inside a black circular curtain with four different visual cues (with different shapes and colors) for orientation to the permanent location of the escape chamber. Four days of training comprised of four trials per day were conducted for each animal. […]

[2] = 3 and 30 mg/kg/d from 24 hours after injury
[3] = 3 and 30 mg/kg/d from 36 hours after injury
[4] = from 48 hours after injury, any dose
[5] = single enantiomers, 3 mg/kg/d IP

For `COc1cccc(NCC(F)Cn2c3ccc(Br)cc3c3cc(Br)ccc32)n1` (racemic) [P7C3-S243, N-(3-(3,6-dibromo-9H-carbazol-9-yl)-2-fluoropropyl)-6-methoxypyridin-2-amine], the “rescue of TH+ neurons” value ([1]; 21 d) was “over 85%”, the “dose showing significant neuroprotective activity” value [1] was 1 mg/kg/day and the “learning (percent latency to escape)” value (blast-injured mice; 0.3 mg/kg/day from 24 hours after injury) was “learned significantly worse than sham-injury mice”. For the same compound, the “learning (percent latency to escape)” value (blast-injured mice; 30 mg/kg/day from 48 hours after injury) was “restored normal learning”, the “learning (percent latency to escape)” value (blast-injured mice; 1, 3, 10 or 30 mg/kg/day from 24 hours after injury) was “learned the task as well as sham-injury mice” and the “percent quadrant time, probe test” value (blast-injured mice; [2]) was “preserved a normal percent quadrant time”. The “percent target entry, probe test” value (blast-injured mice; [2]) was “preserved a normal percent target entry”, the “percent quadrant time, probe test” value (blast-injured mice; [3]) was “only the higher dose was significantly protective” and the “percent target entry, probe test” value (blast-injured mice; [3]) was “only the higher dose was significantly protective”. For the same compound, the “learning (percent latency to escape)” value (blast-injured mice; 3 and 30 mg/kg/day from 36 hours after injury) was “improved learning”, the “percent target entry, probe test” value (blast-injured mice; IP 11 days, dose series, FIG. 22A) was “dose-dependently preserved performance” and the “percent quadrant time, probe test” value (blast-injured mice; IP 11 days, dose series, FIG. 23A) was “dose-dependently preserved performance”. For the same compound, the “memory in probe test” value (blast-injured mice; IP from 24 hours after injury, 0.3 mg/kg/day) was “did not preserve memory”, the “percent time in escape area, probe test” value (blast-injured mice; IP from 24 hours after injury, 1 mg/kg/day) was “partial, though not statistically significant, protection” and the “percent time in escape area, probe test” value (blast-injured mice; IP from 24 hours after injury, 3, 10 and 30 mg/kg/day) was “protected; also recorded: complete protection”. For the same compound, the “memory in probe test” value (blast-injured mice; IP from 36 hours after injury, 3 mg/kg/day) was “did not improve memory”, the “percent time in escape area, probe test” value (blast-injured mice; IP from 36 hours after injury, 30 mg/kg/d) was “partially efficacious” and the “percent time in escape area, probe test” value (blast-injured mice; IP from 48 hours after injury, any dose (3 or 30 mg/kg/d)) was “no protective efficacy”. The “percent quadrant time, probe test” value (blast-injured mice; [4]) was “no protective efficacy”, the “percent target entry, probe test” value (blast-injured mice; [4]) was “no protective efficacy” and the “time in escape quadrant, probe test” value (blast-injured mice) was “restored the time spent in the escape quadrant to normal levels”.
`COc1cccc(NCC(F)Cn2c3ccc(Br)cc3c3cc(Br)ccc32)c1` (stereo not shown) [P7C3-A20, N-(3-(3,6-dibromo-9H-carbazol-9-yl)-2-fluoropropyl)-3-methoxyaniline] was tested, and the “rescue of TH+ neurons” value ([1]; 21 d) was “around 75%”, the “dose showing significant neuroprotective activity” value [1] was 5 mg/kg/day and the “time in escape quadrant, probe test” value (blast-injured mice) was “restored the time spent in the escape quadrant to normal levels”.
For `COc1cccc(NCC(F)Cn2c3ccc(Br)cc3c3cc(Br)ccc32)n1` (single isomer, unassigned; (-)) [(−)-P7C3-S243, (−)-N-(3-(3,6-dibromo-9H-carbazol-9-yl)-2-fluoropropyl)-6-methoxypyridin-2-amine], the “neuroprotection by single enantiomers” value ([1]; 21 d, FIG. 3) was “strongly protective”, the “memory in probe test” value (blast-injured mice; oral from 24 hours after injury, 3, 10 and 30 mg/kg/day) was “preserved memory” and the “learning (percent latency to escape)” value (blast-injured mice; oral, 1 mg/kg/day) was “restored normal learning”. For the same compound, the “memory in probe test” value (blast-injured mice; oral, 1 mg/kg/day) was “did not preserve memory”, the “learning (percent latency to escape)” value (blast-injured mice; oral, 1, 3, 10 and 30 mg/kg/day) was “preserved of normal percent latency to escape” and the “percent quadrant time, probe test” value (blast-injured mice; oral, 3, 10 and 30 mg/kg/day) was “potent preservation”. For the same compound, the “percent target entry, probe test” value (blast-injured mice; oral, 3, 10 and 30 mg/kg/day) was “potent preservation”, the “percent quadrant time, probe test” value (blast-injured mice; [5]) was “completely preserved normal performance” and the “percent target entry, probe test” value (blast-injured mice; [5]) was “preserved normal performance”. The “learning (percent latency to escape)” value (blast-injured mice; single enantiomers, 3 mg/kg/day from 24 hours after injury) was “learned the task as well as sham-injury mice”, the “percent time in escape area, probe test” value (blast-injured mice; single enantiomers, IP from 24 hours after injury, 3 mg/kg/day) was “complete protection” and the “percent time in escape area, probe test” value (blast-injured mice; single enantiomers, IP from 24 hours after injury, 3 mg/kg/day, listed as A, 3 mg/kg/day) was “protective”. For the same compound, the “time in escape quadrant, probe test” value (blast-injured mice) was “nonsignificant trend”.
